In paper PMC10599620, “Structure of a diatom photosystem II supercomplex containing a member of Lhcx family and dimeric FCPII” (Science Advances, 2023):
Values belong to the molecule of their own block, whether it stands above or below them.

Key:
Tp-Lhcf11 = target: T1, Tp-Lhcf11 (Thalassiosira pseudonana, UniProt B8BVI1); assay: cryo-EM structure of native supercomplex, local map […] A; type: binding; conditions: site 305
T1 construct: native; Lhcf6-Lhcf11 heterodimer within purified PSII-FCPII supercomplex; with Fucoxanthin chlorophyll a/c light-harvesting protein Lhcf6
T1 sequence (B8BVI1 31-196): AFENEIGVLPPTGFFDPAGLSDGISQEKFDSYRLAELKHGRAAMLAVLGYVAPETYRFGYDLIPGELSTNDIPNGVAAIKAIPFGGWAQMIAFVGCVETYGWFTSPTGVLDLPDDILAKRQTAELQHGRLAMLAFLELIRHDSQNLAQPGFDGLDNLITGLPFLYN

Tp-Lhcf7 homodimer = target: T2, Tp-Lhcf7 homodimer (Thalassiosira pseudonana, UniProt B8BX93); assay: cryo-EM structure of native supercomplex, […] A; type: binding; conditions: sites 301 and 302
T2 construct: native FCPII homodimer (Lhcf7_1, Lhcf7_2) within purified PSII-FCPII supercomplex
T2 sequence (B8BX93 31-194 limits assumed): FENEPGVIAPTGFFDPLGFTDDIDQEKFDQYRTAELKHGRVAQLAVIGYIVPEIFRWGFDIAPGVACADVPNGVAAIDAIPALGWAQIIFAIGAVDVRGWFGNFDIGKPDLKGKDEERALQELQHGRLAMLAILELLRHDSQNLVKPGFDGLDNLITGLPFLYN

Tp-Lhcf7 = target: T3, Tp-Lhcf7 (Thalassiosira pseudonana); assay: cryo-EM structure; native PSII-FCPII supercomplex co-purified from T. pseudonana (cells grown under low light), in 50 mM Mes-NaOH pH 6.5, 10 mM NaCl, 5 mM CaCl2, 0.03% alpha-DDM, 2 mg Chl/ml; overall map 2.68 A, local map of the peripheral FCPII 3.19 A; conditions: both partners purified
T3 chain: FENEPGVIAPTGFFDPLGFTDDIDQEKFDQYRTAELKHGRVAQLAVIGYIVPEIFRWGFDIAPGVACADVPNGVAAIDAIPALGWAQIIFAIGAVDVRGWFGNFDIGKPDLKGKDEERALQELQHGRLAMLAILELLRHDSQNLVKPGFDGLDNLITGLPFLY

Molecule: CC(=O)O[C@H]1CC(C)(C)C(=C=C/C(C)=C/C=C/C(C)=C/C=C/C=C(C)/C=C/C=C(\C)C(=O)C[C@@]23O[C@]2(C)C[C@@H](O)CC3(C)C)[C@](C)(O)C1 [Fx]
cryo-EM structure of native supercomplex, local map 3.19 A (Tp-Lhcf11): two changes of pigment species at Chl c403 and Fx305 sites
cryo-EM structure of native supercomplex, 2.68 A (Tp-Lhcf7 homodimer): There are two Fxs, Fx301 and Fx302, in Tp-Lhcf7

stoichiometry N (Tp-Lhcf7): 2
B1: Tp-Lhcf7 (natural protein)
chain: T3 chain
modifications: binds 12-13 Chl a, 2 fucoxanthins, 2 diadinoxanthins; homodimer in the supercomplex; limits are the residues modelled in 8IWH (Table S4) / binds 12-13 Chl a, 2 fucoxanthins, 2 diadinoxanthins …
